Type in all cases: cell-based
The target in one assay is T1, VPAC1 (Homo sapiens, UniProt P32241).
T1 sequence (P32241 31-457): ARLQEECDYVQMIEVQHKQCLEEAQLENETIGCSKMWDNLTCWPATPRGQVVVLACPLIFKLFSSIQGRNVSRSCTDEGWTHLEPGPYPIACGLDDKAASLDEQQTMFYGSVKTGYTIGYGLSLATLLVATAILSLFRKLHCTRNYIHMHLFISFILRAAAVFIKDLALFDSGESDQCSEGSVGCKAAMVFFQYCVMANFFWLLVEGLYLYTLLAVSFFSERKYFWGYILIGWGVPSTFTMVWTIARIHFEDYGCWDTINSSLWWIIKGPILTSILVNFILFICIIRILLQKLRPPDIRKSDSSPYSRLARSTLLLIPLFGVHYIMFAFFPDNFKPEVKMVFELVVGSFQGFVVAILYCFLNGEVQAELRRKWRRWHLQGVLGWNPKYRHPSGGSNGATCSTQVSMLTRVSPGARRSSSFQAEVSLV
Nature of the assay: VPAC1 agonist data (Table 2).

Another assay concerns the target T2, VPAC2 (Homo sapiens, UniProt P41587).
T2 sequence (P41587 24-438): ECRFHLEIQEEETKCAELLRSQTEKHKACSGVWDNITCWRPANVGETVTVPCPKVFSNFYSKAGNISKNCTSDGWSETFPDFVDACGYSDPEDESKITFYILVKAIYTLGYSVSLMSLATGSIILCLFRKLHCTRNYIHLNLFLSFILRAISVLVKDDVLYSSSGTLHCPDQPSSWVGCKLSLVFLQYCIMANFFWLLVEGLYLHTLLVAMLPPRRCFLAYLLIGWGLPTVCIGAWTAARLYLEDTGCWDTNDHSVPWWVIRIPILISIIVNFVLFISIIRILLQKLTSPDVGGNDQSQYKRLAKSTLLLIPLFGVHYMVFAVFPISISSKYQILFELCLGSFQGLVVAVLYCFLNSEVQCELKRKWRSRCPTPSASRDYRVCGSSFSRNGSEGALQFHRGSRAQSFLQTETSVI
Description: VPAC2 agonist data (Table 2).

For the next assay, the target named is T3, PAC1 (Homo sapiens, UniProt P41586).
T3 sequence (P41586 21-468): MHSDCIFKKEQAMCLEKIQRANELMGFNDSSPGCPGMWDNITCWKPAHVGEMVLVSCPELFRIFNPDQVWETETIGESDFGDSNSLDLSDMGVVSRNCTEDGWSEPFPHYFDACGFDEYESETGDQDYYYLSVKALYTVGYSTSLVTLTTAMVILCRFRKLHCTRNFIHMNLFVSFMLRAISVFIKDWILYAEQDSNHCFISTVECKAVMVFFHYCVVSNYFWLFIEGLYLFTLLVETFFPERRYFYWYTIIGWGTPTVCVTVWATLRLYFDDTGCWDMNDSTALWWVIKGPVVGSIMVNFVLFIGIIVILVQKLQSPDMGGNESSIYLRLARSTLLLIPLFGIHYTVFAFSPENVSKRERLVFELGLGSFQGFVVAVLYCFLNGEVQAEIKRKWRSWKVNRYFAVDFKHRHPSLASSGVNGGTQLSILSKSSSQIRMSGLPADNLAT
Description: PAC1 agonist data (Table 2). Also noted: host or cells: CHO (clonal line PAC1-CHO). The method, then:
A custom DNA clone of the human PAC1 gene with 3 hemagglutinin (HA) tags inserted 3′ to the signal peptide sequence (to avoid proteolytic loss) was obtained from Genecopoeia (Rockville, MD). The construct was electroporated into Chinese Hamster Ovary (CHO) cells, and selected for with 500 μg/mL of G418. The resulting population was screened for high expressing clones, and one such clone selected for further analysis. […] This cell line was used for all molecular pharmacology experiments. The cells were maintained in DMEM/F12 with 10% heat-inactivated FBS, 1× penicillin/streptomycin, and 500 μg/mL G418, at 37° C. and 5% CO2.
All molecular pharmacology experiments were carried out using a FLIPR Tetra from Molecular Devices (Sunnyvale, CA), set to image calcium flux using the manufacturer's recommended settings and protocols. The day before an experiment, the PAC1-CHO cells were split into 384 well black walled, clear bottom microplates, 10,000 cells per well. The cells were recovered overnight in growth medium (as above). The next day, the growth medium was replaced with Calcium 6 dye (Molecular Devices) using the manufacturer recommended buffer with 2.5 mM probenecid. The cells were incubated for 2 hours in the culture incubator, and removed during the last 15 minutes to allow equilibration to room temperature. Compound as indicated below was added to the cells using a 384 tip block, with real time monitoring before, during, and 15 minutes after compound addition. The resulting calcium flux was recorded, and the maximum-minimum response over the entire observation time calculated and reported as the mean±SEM (4 wells per point).
For agonist mode experiments, compound was added in an 11 point concentration curve, with a vehicle control (buffer). […] The response was analyzed using a 3 variable non-linear curve fit, and the EC50 (nM) and EMax (%) calculated and reported (Prism, GraphPad, La Jolla, CA).

Where a SMILES comes first, the peptide text is derived from it. [ ]: non-standard residue; d: D form. The star is where a group is joined. βGlc = OC[C@H]1O[C@@H](*)[C@H](O)[C@@H](O)[C@@H]1O; Nle = CCCC[C@H](N)C(=O)O

For `CCCC[C@H](NC(=O)[C@H](CCC(N)=O)NC(=O)[C@H](CCCCN)NC(=O)[C@H](CCCNC(=N)N)NC(=O)[C@H](Cc1ccc(O)cc1)NC(=O)[C@H](CCCNC(=N)N)NC(=O)[C@H](CO)NC(=O)[C@H](Cc1ccc(O)cc1)NC(=O)[C@H](CO)NC(=O)[C@H](CC(=O)O)NC(=O)[C@@H](NC(=O)[C@H](Cc1ccccc1)NC(=O)[C@@H](NC(=O)CNC(=O)[C@H](CC(=O)O)NC(=O)[C@@H](CO)NC(=O)[C@@H](N)Cc1c[nH]cn1)[C@@H](C)CC)[C@@H](C)O)C(=O)N[C@@H](C)C(=O)N[C@H](C(=O)N[C@@H](CCCCN)C(=O)N[C@@H](CCCCN)C(=O)N[C@@H](Cc1ccc(O)cc1)C(=O)N[C@@H](CC(C)C)C(=O)N[C@@H](C)C(=O)N[C@@H](C)C(=O)N[C@H](C(=O)N[C@@H](CO[C@@H]1O[C@H](CO)[C@@H](O)[C@H](O)[C@H]1O)C(N)=O)C(C)C)C(C)C`, the EC50 (commonly the concentration needed to bring the measured effect to its halfway point) is 4.8 nM on VPAC1, 654 nM at VPAC2 and 54.5 nM at PAC1. The Emax (in general, the greatest response seen or fitted, relative to the assay's reference) at VPAC1 amounted to 90%; on VPAC2 it was 107%; at PAC1 it was 86%.

`CCCC[C@H](NC(=O)[C@H](CCC(N)=O)NC(=O)[C@H](CCCCN)NC(=O)[C@H](CCCNC(=N)N)NC(=O)[C@H](Cc1ccc(O)cc1)NC(=O)[C@H](CCCNC(=N)N)NC(=O)[C@H](CO)NC(=O)[C@H](Cc1ccc(O)cc1)NC(=O)[C@H](CO)NC(=O)[C@H](CC(=O)O)NC(=O)[C@@H](NC(=O)[C@H](Cc1ccccc1)NC(=O)[C@@H](NC(=O)CNC(=O)[C@H](CC(=O)O)NC(=O)[C@@H](CO)NC(=O)[C@@H](N)Cc1c[nH]cn1)[C@@H](C)CC)[C@@H](C)O)C(=O)N[C@@H](C)C(=O)N[C@H](C(=O)N[C@@H](CCCCN)C(=O)N[C@@H](CCCCN)C(=O)N[C@@H](Cc1ccc(O)cc1)C(=O)N[C@@H](CC(C)C)C(=O)N[C@@H](C)C(=O)N[C@@H](C)C(=O)N[C@H](C(=O)N[C@@H](CC(C)C)C(=O)N[C@@H](CO[C@@H]1O[C@H](CO)[C@@H](O)[C@H](O)[C@H]1O)C(N)=O)C(C)C)C(C)C`: the EC50 on VPAC1 stood at 1.3 nM; at VPAC2 it was 241 nM; at PAC1, 25.5 nM. Also, the Emax at VPAC1 came to 90%; on VPAC2, 104%; at PAC1, 85%.

Regarding `CCCC[C@H](NC(=O)[C@H](CCC(N)=O)NC(=O)[C@H](CCCCN)NC(=O)[C@H](CCCNC(=N)N)NC(=O)[C@H](Cc1ccc(O)cc1)NC(=O)[C@H](CCCNC(=N)N)NC(=O)[C@H](CO)NC(=O)[C@H](Cc1ccc(O)cc1)NC(=O)[C@H](CO)NC(=O)[C@H](CC(=O)O)NC(=O)[C@H](C)NC(=O)[C@H](Cc1ccccc1)NC(=O)[C@@H](NC(=O)CNC(=O)[C@H](CC(=O)O)NC(=O)[C@@H](CO)NC(=O)[C@@H](N)Cc1c[nH]cn1)[C@@H](C)CC)C(=O)N[C@@H](C)C(=O)N[C@H](C(=O)N[C@@H](CCCCN)C(=O)N[C@@H](CCCCN)C(=O)N[C@@H](Cc1ccc(O)cc1)C(=O)N[C@@H](CC(C)C)C(=O)N[C@@H](C)C(=O)N[C@@H](C)C(=O)N[C@H](C(=O)N[C@@H](CO[C@@H]1O[C@H](CO)[C@@H](O)[C@H](O)[C@H]1O)C(N)=O)C(C)C)C(C)C` (H-H[dS]DGIFADSYSRYRKQ[Nle]AVKKYLAAVS(βGlc)-NH2; C-terminus assumed), at VPAC1, the EC50 was 1370 nM and the Emax came to 85%.

As to `CCCC[C@H](NC(=O)[C@H](CCC(N)=O)NC(=O)[C@H](CCCCN)NC(=O)[C@H](CCCNC(=N)N)NC(=O)[C@H](Cc1ccc(O)cc1)NC(=O)[C@H](CCCNC(=N)N)NC(=O)[C@H](CO)NC(=O)[C@H](Cc1ccc(O)cc1)NC(=O)[C@H](CO)NC(=O)[C@H](CC(=O)O)NC(=O)[C@H](C)NC(=O)[C@H](Cc1ccccc1)NC(=O)[C@@H](NC(=O)CNC(=O)[C@H](CC(=O)O)NC(=O)[C@@H](CO)NC(=O)[C@@H](N)Cc1c[nH]cn1)[C@@H](C)CC)C(=O)N[C@@H](C)C(=O)N[C@H](C(=O)N[C@@H](CCCCN)C(=O)N[C@@H](CCCCN)C(=O)N[C@@H](Cc1ccc(O)cc1)C(=O)N[C@@H](CC(C)C)C(=O)N[C@@H](C)C(=O)N[C@@H](C)C(=O)N[C@H](C(=O)N[C@@H](CO[C@@H]1O[C@H](CO)[C@@H](O)[C@H](O)[C@H]1O)C(=O)N[C@@H](CC(C)C)C(N)=O)C(C)C)C(C)C` (H-H[dS]DGIFADSYSRYRKQ[Nle]AVKKYLAAVS(βGlc)L-NH2; C-terminus assumed), at VPAC1, the EC50 was determined as 1620 nM and the Emax was found to be 78%.

As to `CCCC[C@H](NC(=O)[C@H](CCC(N)=O)NC(=O)[C@H](CCCCN)NC(=O)[C@H](CCCNC(=N)N)NC(=O)[C@H](Cc1ccc(O)cc1)NC(=O)[C@H](CCCNC(=N)N)NC(=O)[C@H](CO)NC(=O)[C@H](Cc1ccc(O)cc1)NC(=O)[C@H](CO)NC(=O)[C@H](CC(=O)O)NC(=O)[C@@H](NC(=O)[C@H](Cc1ccccc1)NC(=O)[C@@H](NC(=O)CNC(=O)[C@H](CC(=O)O)NC(=O)[C@@H](CO)NC(=O)[C@@H](N)Cc1c[nH]cn1)[C@@H](C)CC)[C@@H](C)O)C(=O)N[C@@H](C)C(=O)N[C@H](C(=O)N[C@@H](CCCCN)C(=O)N[C@@H](CCCCN)C(=O)N[C@@H](Cc1ccc(O)cc1)C(=O)N[C@@H](CC(C)C)C(=O)N[C@@H](C)C(=O)N[C@@H](C)C(=O)N[C@@H](CC(C)C)C(=O)N[C@@H](CO[C@@H]1O[C@H](CO)[C@@H](O)[C@H](O)[C@H]1O)C(=O)N[C@@H](CC(C)C)C(N)=O)C(C)C` (H-H[dS]DGIFTDSYSRYRKQ[Nle]AVKKYLAALS(βGlc)L-NH2; C-terminus assumed), the EC50 at VPAC1 is 5.9 nM; on VPAC2, > 2500 nM; at PAC1, > 250 nM. Also, the Emax at VPAC1 was 93%; on VPAC2, -95%; on PAC1 it was -79%.

These data come from patent publication US20240294595A1, “GLYCOPEPTIDES AND USES THEREOF” (Arizona Board of Regents on Behalf of the University of …, priority 2013, published 2024).
